Laboratory results from ChEMBL document CHEMBL1128046, “Inhibitors of acyl-coa:cholesterol acyltransferase (ACAT). 15. sulfonylurea inhibitors with excellent hypocholesterolemic activity in vivo” (Bioorg Med Chem Lett, 1995).
Active and inactive are the calls of the source. The rule behind the calls is not given here.

Assays:
Rattus norvegicus [1] = assay: Hypocholesterolemic activity expressed as percent change in total cholesterol in acute cholesterol fed rats (APCC) at dose 30 mg/kg; type: functional
Rattus norvegicus [2] = assay: Hypocholesterolemic activity expressed as percent change in total cholesterol in acute cholesterol fed rats (APCC) at dose 3 mg/kg; type: functional
Rattus norvegicus [3] = assay: Hypocholesterolemic activity expressed as percent change in total cholesterol in chronic cholesterol fed rats (CPCC) at dose 3 mg/kg; type: functional
Rattus norvegicus [4] = assay: Hypocholesterolemic activity expressed as percent change in total cholesterol in chronic cholesterol fed rats (CPCC) at dose 30 mg/kg; type: functional
[5] = target: T1, Sterol O-acyltransferase 1 (Rattus norvegicus, UniProt O70536); assay: Inhibition of Acyl-CoA: Cholesterol Acyltransferase (ACAT) in liver microsomes of cholesterol fed rats; set-up: species or system Microsome
T1 sequence (O70536 whole entry): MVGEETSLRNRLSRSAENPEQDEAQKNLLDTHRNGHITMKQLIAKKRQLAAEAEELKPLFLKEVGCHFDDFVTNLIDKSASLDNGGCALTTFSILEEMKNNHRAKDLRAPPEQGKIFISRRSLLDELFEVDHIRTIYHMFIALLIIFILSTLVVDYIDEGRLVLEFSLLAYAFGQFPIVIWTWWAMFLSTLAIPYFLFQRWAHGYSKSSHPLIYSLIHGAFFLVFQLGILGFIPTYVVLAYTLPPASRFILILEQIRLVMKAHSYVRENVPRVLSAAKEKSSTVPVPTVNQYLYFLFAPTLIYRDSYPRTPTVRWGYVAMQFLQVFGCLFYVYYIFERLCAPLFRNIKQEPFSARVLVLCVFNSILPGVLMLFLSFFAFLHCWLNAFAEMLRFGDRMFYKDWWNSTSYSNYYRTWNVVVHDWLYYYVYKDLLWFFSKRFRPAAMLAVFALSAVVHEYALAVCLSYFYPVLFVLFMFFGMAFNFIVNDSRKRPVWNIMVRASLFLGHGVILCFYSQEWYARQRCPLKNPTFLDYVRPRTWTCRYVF

Rattus norvegicus [6] = assay: Hypocholesterolemic activity expressed as percent change in total cholesterol in acute cholesterol fed rats (APCC) at dose 30 mg/kg; NC means no change; type: functional, organism-based; set-up: dose 30 mg/kg
[7] = target: T1, Sterol O-acyltransferase 1; assay: (§1) Compound at 5 uM concentration was tested in vitro for inhibition of Acyl-CoA: Cholesterol Acyltransferase (ACAT) in liver microsomes of cholesterol fed rats; set-up: species or system Microsome
O-acyltransferase [8] = target: T2, O-acyltransferase (Oryctolagus cuniculus, UniProt G1SFD9); assay: Inhibition of Acyl-CoA: Cholesterol Acyltransferase (ACAT) in intestinal microsomes of cholesterol fed rabbits; set-up: species or system Intestine
[9] = target: T3, Acyl-CoA:cholesterol acyltransferase (Oryctolagus cuniculus) (UniProt Q95214); assay: (§2) Compound at 5 uM concentration was tested in vitro for inhibition of Acyl-CoA: Cholesterol Acyltransferase (ACAT) in intestinal microsomes of cholesterol fed rabbits; settings: Intestine
T3 sequence (whole entry): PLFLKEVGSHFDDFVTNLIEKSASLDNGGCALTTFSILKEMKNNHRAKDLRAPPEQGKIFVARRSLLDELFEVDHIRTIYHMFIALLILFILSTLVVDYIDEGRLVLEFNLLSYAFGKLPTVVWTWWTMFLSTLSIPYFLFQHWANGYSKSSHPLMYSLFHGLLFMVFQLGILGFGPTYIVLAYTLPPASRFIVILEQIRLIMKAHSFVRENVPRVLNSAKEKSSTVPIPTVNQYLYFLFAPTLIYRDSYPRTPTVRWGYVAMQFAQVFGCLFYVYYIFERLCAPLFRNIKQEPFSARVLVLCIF

[10] = target: T4, Sterol O-acyltransferase 1 (Rattus norvegicus) (UniProt O70536); assay: Compound at 10 uM concentration was tested in vitro for inhibition of Acyl-CoA: Cholesterol Acyltransferase (ACAT) in liver microsomes of cholesterol fed rats; settings: Microsome
T4 sequence (whole entry): T1 sequence (O70536 whole entry)

Rattus norvegicus [11] = assay: Hypocholesterolemic activity expressed as percent change in total cholesterol in chronic cholesterol fed rats (CPCC) at dose 3 mg/kg; NC means no change; type: functional, organism-based; set-up: dose 3 mg/kg
O-acyltransferase [12] = target: T2, O-acyltransferase; assay: as §2; set-up: species or system Intestine
[13] = target: T4, Sterol O-acyltransferase 1 (Rattus norvegicus); assay: as §1; settings: Microsome

T2 sequence (G1SFD9 1-524): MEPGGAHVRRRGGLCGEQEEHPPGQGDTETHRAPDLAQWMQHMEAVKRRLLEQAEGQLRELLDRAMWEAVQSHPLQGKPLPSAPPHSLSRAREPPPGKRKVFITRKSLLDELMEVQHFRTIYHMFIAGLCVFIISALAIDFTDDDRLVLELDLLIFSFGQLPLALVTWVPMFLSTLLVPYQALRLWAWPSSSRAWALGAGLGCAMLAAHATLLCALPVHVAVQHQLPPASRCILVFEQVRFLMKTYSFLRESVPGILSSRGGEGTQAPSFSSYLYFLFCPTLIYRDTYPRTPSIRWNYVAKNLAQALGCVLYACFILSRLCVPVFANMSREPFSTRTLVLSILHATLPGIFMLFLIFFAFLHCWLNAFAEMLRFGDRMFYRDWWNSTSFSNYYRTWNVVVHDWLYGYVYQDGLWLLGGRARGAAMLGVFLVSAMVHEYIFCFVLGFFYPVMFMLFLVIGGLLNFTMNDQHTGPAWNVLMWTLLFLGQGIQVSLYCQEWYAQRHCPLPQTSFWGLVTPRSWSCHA

Row | Compound | IC50 [5] [nM] | IC50 (O-acyltransferase [8]) [nM] | Change (Rattus norvegicus [1]) [%] | Change (Rattus norvegicus [2]) [%] | Change (Rattus norvegicus [3]) [%] | Change (Rattus norvegicus [4]) [%] | further results
1 | CCCCCCCCC(C)S(=O)(=O)NC(=O)Nc1c(C(C)C)cccc1C(C)C (stereo not given) | 1300 | – | -69 | -32 | -46 | -58 | –
2 | CCCCCCCCCCCCCC(C)(C)S(=O)(=O)NC(=O)Nc1c(OC)cc(OC)cc1OC | 8100 | – | -76 | -18 | -13 | – | –
3 | CCCCCCCCCCCCCCS(=O)(=O)N(Cc1ccccc1)C(=O)Nc1c(C(C)C)cccc1C(C)C | – | 520 | – | – | – | – | Change (Rattus norvegicus [6]): inactive; IC50 [7]: 38 µM
4 | CCCCCCCCCCCCCCCCC(C)S(=O)(=O)NC(=O)Nc1c(C(C)C)cccc1C(C)C (stereo not given) | 1390 | – | -76 | -58 | – | -36 | –
5 | CCCCCCCCCCCCS(=O)(=O)NC(=O)Nc1c(C(C)C)cccc1C(C)C | 3300 | 2330 | -63 | -59 | -35 | -53 | –
6 | CCCCCCCCCCCCCS(=O)(=O)NC(=O)Nc1c(C(C)C)cccc1C(C)C | 2000 | 1200 | -62 | -42 | – | -69 | –
7 | CCCCCCCCS(=O)(=O)NC(=O)Nc1c(C(C)C)cccc1C(C)C | 22600 | – | -74 | -31 | – | -59 | inhibition [9]: 24%
8 | CC(C)c1cccc(C(C)C)c1OC(=O)[N-]S(=O)(=O)Oc1c(C(C)C)cccc1C(C)C.[Na+] | – | – | -74 | -59 | -64 | -64 | –
9 | CCCCCCCCCCCCCCS(=O)(=O)NC(=O)Nc1ccc(F)cc1F | – | – | – | -14 | – | – | inhibition [9]: 49%; inhibition [10]: 0%
10 | CCCCCCCCCCCCCC(c1ccccc1)S(=O)(=O)NC(=O)Nc1c(C(C)C)cccc1C(C)C (stereo not given) | 2300 | – | -72 | -69 | – | -62 | Change (Rattus norvegicus [11]): inactive
11 | CCCCCCCCC(c1ccccc1)S(=O)(=O)NC(=O)Nc1c(C(C)C)cccc1C(C)C (stereo not given) | 9200 | – | -75 | -62 | -48 | -74 | IC50 (O-acyltransferase [12]): 1100 nM
12 | CCCCCCCCCCS(=O)(=O)NC(=O)Nc1c(C(C)C)cccc1C(C)C | 13600 | 11100 | -52 | -40 | – | -47 | –
13 | CCCCCCCCCCCCCCS(=O)(=O)N(C)C(=O)Nc1c(C(C)C)cccc1C(C)C | 8830 | – | -48 | -20 | – | – | inhibition [9]: 34%
14 | CCCCCCCCCCCCCCS(=O)(=O)NC(=O)Nc1c(OC)cc(OC)cc1OC | – | – | -47 | -31 | – | – | inhibition [13]: 40%

The next lines start with results.

Row | IC50 [5] [nM] | IC50 (O-acyltransferase [8]) [nM] | Compound | Change (Rattus norvegicus [1]) [%] | Change (Rattus norvegicus [2]) [%] | Change (Rattus norvegicus [3]) [%] | Change (Rattus norvegicus [4]) [%] | further results
15 | 675 | 86 | CCCCCCCCCCCCS(=O)(=O)N(C)C(=O)Nc1c(C(C)C)cccc1C(C)C | -49 | -18 | – | – | –
16 | 830 | – | CCCCCCCCCCCCCC(C)S(=O)(=O)NC(=O)Nc1c(C(C)C)cccc1C(C)C (stereo not given) | -76 | -61 | -26 | -61 | –
17 | 1270 | 1350 | CCCCCCCCCCCCCCCCS(=O)(=O)NC(=O)Nc1c(C(C)C)cccc1C(C)C | -64 | -58 | – | -10 | –
18 | 940 | – | CCCCCCCCCCCCCCS(=O)(=O)NC(=O)Nc1c(C(C)C)cccc1C(C)C | -56 | -60 | -46 | -58 | –
19 | 85 | – | CCCCCCCCCCCCCCCCC(C)S(=O)(=O)NC(=O)Nc1c(OC)cc(OC)cc1OC (stereo not given) | -53 | -12 | – | -18 | –
20 | 682 | – | CCCCCCCCCCCCCC(C)(C)S(=O)(=O)NC(=O)Nc1c(C(C)C)cccc1C(C)C | -52 | -55 | -26 | -59 | –
